# How the values were obtained:
# [1] = tested on: rapamycin-induced FKBP–FRB interaction within HEK293 cells; assay: NanoBiT luciferase structural complementation assay of rapamycin-induced FKBP–FRB interaction; type: cell-based, human; conditions: HEK293 co-transfected with FRB-LgBit and FKBP-SmBiT, 200 nM rapamycin, RLU for 60 min, qualitative; for peptide concentration inhibiting rapamycin-induced FKBP–FRB interaction: peptide added with rapamycin plus booster after 30 min, at least five determinations in triplicates
# Experimental: The protein complementation assay technology used herein, NanoBiT® (Promega, Madison, WI, USA), was commercially designed to investigate inducible PPI under in vivo cellular conditions, allowing the analyses of distinctive molecules that, introduced within cells, can modify inducible PPI [58]. All experimental procedures were performed according to the manufacturer’s recommendations. Briefly, transient transfections were performed with NanoBiT® PPI Control Pair FKBP–FRB (Promega, Madison, WI, USA; catalog number N2016), containing the FRB-LgBit and FKBP-SmBiT vectors (NanoBiT® PPI Control Pair FKBP, FRB; catalog number N2016, Promega, Madison, WI, USA). Plasmids were co-transfected into HEK293 cells using FuGENE® 6 Transfection Reagent (Promega, Madison, WI, USA), according to the recommendations of the manufacturers. Cells transfected in the absence of DNA were the negative controls of the experiments, whereas the green fluorescent protein expressing pEGFP plasmid (Clontech, Mountain View, CA, USA; 100 ng) was used to evaluate transfections efficiencies; after 30 h of transfection, the pEGFP expression was easily assessed by fluorescent microscopy (data not shown).
# HEK293 cells (approximately 10^4) cultured in a 96-well plate in DMEM high-glucose medium, supplemented with 10% FBS and 1% penicillin/streptomycin, were transiently co-transfected with 200 ng of both […] and FKBP-SmBiT vectors (NanoBiT® PPI Control Pair FKBP, FRB; catalog number N2016, Promega, Madison, WI, USA); this final plasmid concentration of 200 ng was defined previously testing different plasmid concentrations, as shown in Supplemental Figure S1A. The transfected cells were incubated in Opti-MEM® I Reduced Serum Medium culture medium (Gibco, Gaithersburg, MD, USA) for 2 h and then treated with 200 nM of rapamycin (BPSBioscience, CAS 53123-88-9, San Diego, CA, USA) diluted in Opti-MEM®/0.01% DMSO (Gibco, Gaithersburg, MD, USA; this rapamycin concentration of 200 nM was defined previously testing different concentrations, as shown in Supplemental Figure S1B). […] Graphs of RLU versus time were plotted by GraphPad Prism (GraphPad, San Diego, CA, USA). Control experiments were conducted using VFD10 and VFD7 without cpp covalently bound, in addition to cpp alone (Supplemental Figure S2).
# [2] = tested on: autophagy-deficient Atg5^−/− MEF cells; assay: Cell viability (MTT) after hypoxia-reoxygenation, Atg5-/- MEF; type: cell-based, mouse; conditions: 1 µM peptide from 30 min before ischemia with boosters, 3 h hypoxia, 3 h reoxygenation; n = 3 independent experiments
# Experimental: (§1) These experiments were performed to evaluate the possible pharmacological application of VFD7-cpp and additional selected peptides on cell viability, following an ischemic challenge. These experiments also contributed to investigate the possible biological significance of InPeps for cell viability following hypoxia-reoxygenation. Therefore, herein the effect of peptides was evaluated in wild type mouse embryonic fibroblasts cells (MEF) expressing Atg5 (Atg5^+/+) and in the MEF missing autophagy pathway due to the lack of Atg5 (Atg5^−/−); Atg5 is indispensable in both canonical and non-canonical autophagy. Atg5^+/+ and Atg5^−/− MEF were cultured in a 96-well plate in DMEM high-glucose medium supplemented with 10% FBS and 1% penicillin/streptomycin, as previously described. […] After the protocol, cell viability was measured by using tetrazolium salt 3-(4,5-Dimethylthiazol 2-yl)-2,5-diphenyltetrazolium bromide (MTT) assay; these assays measure the mitochondrial metabolic rate and indirectly reflect the viable cell numbers, which are the most commonly used method to evaluate the effect of compounds on cell viability on cultured cells. […]
# [3] = tested on: Atg5^+/+ mouse embryonic fibroblasts cells (MEF); assay: Cell viability (MTT) after hypoxia-reoxygenation, Atg5+/+ MEF; type: cell-based; conditions: 1 µM peptide from 30 min before ischemia with boosters, 3 h hypoxia, 3 h reoxygenation; n = 3 independent experiments; vs. cpp
# Experimental: as §1
# [4] = tested on: PPI between cytosolic brain proteins and 14-3-3 epsilon; conditions: surface plasmon resonance; cited from earlier work
# Experimental: (§2) VFD10 and VFD7 (10–50 µM) were shown by surface plasmon resonance to inhibit PPI between cytosolic brain proteins and both calmodulin (CaM) and 14-3-3 epsilon. VFD7 (5–20 µM) introduced into the HEK293 cells by means of transient membra ...
# [5] = tested on: PPI between cytosolic brain proteins and calmodulin (CaM); conditions: surface plasmon resonance; cited from earlier work
# Experimental: as §2
# HEK293 cells = conditions: introduced into HEK293 cells by transient membrane permeabilization with CHAPS; cited from earlier work
# Experimental: as §2
# [6] = tested on: thimet oligopeptidase and CaM; conditions: in vitro surface plasmon resonance; cited from earlier work
# [7] = after 30 min of internalization into Chinese hamster ovarian cells; random control peptide; cited from earlier work
# Experimental: Hundreds of InPeps have been described from the most diverse sources, including plants, yeast, fish, and mammals. Despite of the strong evidence that InPeps are natural constituents of the cells, the expected short half-life of peptides within cells full of peptidases contests their stability and biological significance. […] For example, after 30 min of internalization into Chinese hamster ovarian cells, the ...
substance,measurement,setting,value
"AVELLYGRKKKRRQRRR [AVE5-cpp, derived from VFD5-cpp, D to A]",effect on rapamycin-induced FKBP–FRB interaction (in words),[1],unable to alter rapamycin-induced FKBP–FRB interactions
"DVELLYGRKKRRQRRR [VFD5-cpp, N-terminally shortened VFD7-cpp derivative]",effect on rapamycin-induced FKBP–FRB interaction (in words),[1],reduced potencies compared to VFD6-cpp or VFD7-cpp
same,peptide concentration inhibiting rapamycin-induced FKBP–FRB interaction,[1],500 nM
"EVELLYGRKKKRRQRRR [EVE5-cpp, derived from VFD5-cpp, D to E]",effect on rapamycin-induced FKBP–FRB interaction (in words),[1],unable to alter rapamycin-induced FKBP–FRB interactions
"FDVELLYGRKKKRRQRRR [VFD6-cpp, FDVELL (VFD6) covalently coupled to cpp]",cell viability after hypoxia-reoxygenation (MTT),[2],but not on autophagy-deficient Atg5^−/− MEF cells
same,peptide concentration inhibiting rapamycin-induced FKBP–FRB interaction,[1],1 to 500 nM
same,cell viability after hypoxia-reoxygenation (MTT),[3],increase cell viability
"VELLYGRKKRRQRRR [VFD4-cpp, N-terminally shortened VFD7-cpp derivative]",effect on rapamycin-induced FKBP–FRB interaction (in words),[1],reduced potencies compared to VFD6-cpp or VFD7-cpp
same,peptide concentration inhibiting rapamycin-induced FKBP–FRB interaction,[1],500 nM
"VFAVELLYGRKKKRRQRRR [VFA7-cpp, VFD7-cpp with D substituted to A]",effect on rapamycin-induced FKBP–FRB interaction (in words),[1],unable to alter rapamycin-induced FKBP–FRB interactions
"VFDVELL [VFD7, InPep VFDVELL derived from FKBP12]",peptide concentration shown to inhibit PPI with 14-3-3 epsilon,[4],10 to 50 µM
same,peptide concentration shown to inhibit PPI with calmodulin,[5],10 to 50 µM
same,peptide concentration shown to increase cytosolic Ca2+ concentrations,HEK293 cells,5 to 20 µM
same,effect on thimet oligopeptidase–CaM interaction (in words),[6],inhibits the interaction but does not disrupt the association
same,effect on rapamycin-induced FKBP–FRB interaction (in words),[1],have no effect
"VFDVELLKLE [VFD10, InPep … derived from FKBP12]",peptide concentration shown to inhibit PPI with 14-3-3 epsilon,[4],10 to 50 µM
same,peptide concentration shown to inhibit PPI with calmodulin,[5],10 to 50 µM
same,effect on rapamycin-induced FKBP–FRB interaction (in words),[1],have no effect
"VFDVELLKLEYGRKKKRRQRRR [VFD10-cpp, VFD10 covalently coupled to cpp at C-terminus]",effect on rapamycin-induced FKBP–FRB interaction (in words),[1],unable to alter rapamycin-induced FKBP–FRB interactions
"VFEVELLYGRKKKRRQRRR [VFE7-cpp, VFD7-cpp with D substituted to E]",effect on rapamycin-induced FKBP–FRB interaction (in words),[1],unable to alter rapamycin-induced FKBP–FRB interactions
VNMVPVGWASFR [random peptide used as the control in an earlier study],peptide recovered after internalization,[7],100%
"YGRKKKRRQRRR [cpp, cell-penetrating peptide used alone as control, reference compound]",effect on rapamycin-induced FKBP–FRB interaction (in words),[1],have no effect

# From PMC8834644, “Effect of FKBP12-Derived Intracellular Peptides on Rapamycin-Induced FKBP–FRB Interaction and Autophagy” (Cells, 2022)
